In ChEMBL document CHEMBL4706648, “Antitubercular 2-Pyrazolylpyrimidinones: Structure-Activity Relationship and Mode-of-Action Studies” (J Med Chem, 2021):
≈ marks a conversion by molar mass, not a printed value.

Experiments:
Type in all cases: functional, H37Rv
Details in all cases: time 7-14 day
[1] = tested on: Mycobacterium tuberculosis
[2] = tested on: Mycobacterium tuberculosis; remark: listed apart in the source
[3] = tested on: Mycobacterium tuberculosis; remark: listed apart in the source
[4] = tested on: Mycobacterium tuberculosis; remark: listed apart in the source

Structure (SMILES) | MIC [1] | MIC [2] | MIC [3] | MIC [4]
Cc1cc(C)n(-c2nc(O)cc(-c3ccccc3)n2)n1 | 40 µM (≈ 10.7 µg/mL) | 1.9 µM (≈ 0.506 µg/mL) | 18 µM (≈ 4.79 µg/mL) | 16 µM (≈ 4.26 µg/mL)
Cc1cc(C)n(-c2nc(C(F)(F)F)cc(=O)[nH]2)n1 |  | 17 µM (≈ 4.39 µg/mL) | 170 µM (≈ 43.9 µg/mL) | 
CC(=O)Nc1cc(C)nn1-c1nc(-c2ccccc2)cc(=O)[nH]1 |  | 24 µM (≈ 7.42 µg/mL) |  | 
COCCNc1cc(C)nn1-c1nc(C(F)(F)F)cc(=O)[nH]1 |  | 1.9 µM (≈ 0.603 µg/mL) | 39 µM (≈ 12.4 µg/mL) | 
CCNc1cc(C)nn1-c1nc(-c2cccnc2)cc(=O)[nH]1 |  | 5.5 µM (≈ 1.63 µg/mL) | 41 µM (≈ 12.1 µg/mL) | 
Cc1ccc(Nc2cc(C)nn2-c2nc(C)cc(O)n2)cc1 | 110 µM (≈ 32.5 µg/mL) | 5.4 µM (≈ 1.59 µg/mL) | 55 µM (≈ 16.2 µg/mL) | 45 µM (≈ 13.3 µg/mL)
Cc1cc(Nc2ccc(F)cc2)n(-c2nc(C(F)(F)F)cc(=O)[nH]2)n1 |  | 1 µM (≈ 0.353 µg/mL) |  | 
